Results on 2 compounds are retold here after paper PMC8177097 (FEBS letters, 2020).

The structures appear in SMILES notation.

For assay [1], the target named is T1, lipocalin Blc (wtBlc) (Escherichia coli, UniProt P0A901).
T1 sequence (P0A901 19-177): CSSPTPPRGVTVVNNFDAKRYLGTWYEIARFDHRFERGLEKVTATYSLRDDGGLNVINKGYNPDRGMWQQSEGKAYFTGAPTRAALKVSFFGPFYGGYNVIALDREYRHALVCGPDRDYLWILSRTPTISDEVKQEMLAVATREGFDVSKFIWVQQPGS
Put plainly: spectrophotometric hemin titration. The format is binding.

Assay [2] addresses T1, lipocalin Blc (wtBlc). Put plainly: tryptophan fluorescence quenching titration. The format is binding.

As for `C=CC1=C(C)C2=Cc3c(C=C)c(C)c4[n]3[Fe][n]3c(c(C)c(CCC(=O)O)c3=CC3=NC(=C4)C(C)=C3CCC(=O)O)=CC1=N2` [heme], binding in assay [1] was characterised by a dissociation constant (Kd) of 1400 ± 300 nM.

`CC1=C(CCC(=O)O)c2cc3[nH]c(cc4nc(cc5[nH]c(cc1n2)c(C)c5C(C)O)C(C)=C4C(C)O)c(C)c3CCC(=O)O` (centres unmarked) [HP, hematoporphyrin]: the Kd in assay [2] was 0.14 ± 0.1 nM.
